From US20240246905A1 (University of Leicester, priority 2021, published 2024)
Values after ≈ are worked out from the molar mass of the structure shown. Read-outs that look alike come from different tables or passages of the source.

Columns and labels:
C. tropicalis ATCC 750 = experiment: Anti-fungal MIC (CO-ADD); format: cell-based
Method: (§1) Fungal strains were cultured for 3 days on Yeast Extract-Peptone Dextrose (YPD) agar at 30° C. A yeast suspension of 1×10^6 to 5×10^6 CFU/mL (as determined by OD530) was prepared from five colonies. […] All plates were covered and incubated at 35° C. for 36 hours without shaking. […] The absorbance was measured using a Biotek Multiflo Synergy HTX plate reader. In both cases, the percentage of growth inhibition was calculated for each well, using the negative control (media only) and positive control (fungi without inhibitors) on the same plate. […] Due to a higher variance in growth and inhibition, a lower threshold was applied to the data for C. neoformans. In addition, the maximal percentage of growth inhibition is reported as DMax, indicating any compounds with marginal activity.

C. tropicalis ATCC 450 = experiment: Anti-fungal MIC (CO-ADD); format: cell-based
Method: as §1

C. glabrata ATCC 90030 = experiment: Anti-fungal MIC (CO-ADD); format: cell-based
Method: as §1

C. albicans ATCC 90028 = experiment: Anti-fungal MIC (CO-ADD); format: cell-based
Method: as §1

[1] = test system: C. neoformans H99; ATCC 208821; experiment: Anti-fungal MIC (CO-ADD); format: cell-based
Method: as §1

[2] = test system: C. deuterogattii ATCC 32609; experiment: Anti-fungal MIC (CO-ADD); format: cell-based
Method: as §1

MRSA 252 = experiment: Resistance testing by serial passaging; format: cell-based, S. aureus; conditions: 18 serial passage cycles
Method: Next a serial passage study was undertaken in order to elucidate the speed at which target bacteria might either evolve resistance or select for persister cells within that population following exposure to compound 36.
For resistance development by serial passaging, 5 μL of overnight cultured MRSA 252 cells were added to individual wells in a 96-well plate containing 195 μL of TSB supplemented with a range of antibiotic concentrations and incubated at 37° C. for 18 hours. Ofloxacin served as a control. Wells where bacterial growth was visible after 18 hours were plated on TSA plates and incubated at 37° C. for a further 18 hours. Single colonies obtained from the overnight cultured bacteria were then inoculated into fresh TSB medium, incubated at 37° C. for 18 hours before being used in the next cycle of the resistance testing. This process continued for 18 cycles.

[3] = test system: MRSA 252, MSSA 476, S. aureus 15981, P. aeruginosa PA01 and E. coli DH5α; experiment: Disc diffusion primary screening, five strains (statements in words); format: cell-based; conditions: 500 μg/mL
Method: As such, the minimum inhibition concentration (MICs) of biologically active compounds were further assessed using the broth dilution method against the S. aureus strains; MRSA 252 and MSSA 476 (Table 1). The results of both assays enabled key structural elements and functional groups required for the compounds to retain their antibiotic activity to be identified.
The antibiotic activity was determined using a Kirby-Bauer method according to Clinical Standard Laboratory Institute (CSLI) Guidelines (2017). Briefly, 180 μL of a 1 in 200 dilution (in LB or TSB) of overnight cultures of selected Gram negative and Gram positive bacteria were applied to an agar plate containing the solid growth medium, Mueller-Hinton agar (MHA). Sterile discs, inoculated with 50 μL of antibiotic, were first added to the agar plate before the plates were incubated for 24 hours at 37° C. Following incubation, the zone of inhibition (if it existed) was recorded.

S. aureus AS 68 biofilm = experiment: Biofilm eradication, 24 hour old biofilms, crystal violet; format: cell-based
Method: The attenuation of biomass by the lead compounds in the 24 hour old biofilms was measured by crystal violet stain assay. […] Further assays were performed to study the biofilm attenuation properties of compound 41. At concentrations, as low as 2 μg/ml (the lowest concentration tested), there was still an 86% reduction of the biofilm depth (FIG. 4).
Eradication: To develop biofilms, 2.5 μL of an overnight culture of bacteria was added to individual wells in a 96-well plate each containing 100 μL TSB supplemented with 0.5% glucose and incubated at 37° C. for 24 hours. Following this, the medium in each well was first discarded and washed once with PBS before set concentrations of antibiotic was added and incubated at 37° C. for a further 18 hours. The medium in each well was then discarded, washed 4× with PBS before 150 μL 1% crystal violet was added and the plate was left to incubate at room temperature for a further 30 minutes. Following incubation, the medium in each well was first discarded before being washed 4× with PBS. 200 μL 7% acetic acid was then added and the wells were measured at OD595.

[4] = test system: Pseudomonas aeruginosa PA01; experiment: Disc diffusion (Kirby-Bauer), zone of inhibition; format: cell-based; conditions: 500 μg/mL, '/' = no zone
In short: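 Kirby-Bauer per CLSI 2017: 1 in 200 dilutions of overnight cultures (LB for Gram-negatives, TSB for Gram-positives) spread on Mueller-Hinton agar. Discs loaded with 50 μL antibiotic were added and plates incubated 24 h at 37 °C. Zone of inhibition recorded.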

[5] = Acid stability in 1M acetic acid (NMR, IR); format: physicochemical; conditions: 6 hours in 1M acetic acid (pH 2.37)
Method: Also, well documented in the literature, is the hydrolysis of isocyanide compounds to their corresponding formamide in acidic conditions. Due to the acidic conditions present in the stomach it was important to identify whether the lead compounds might hydrolyse to their corresponding formamide compounds in-vivo. To determine this, Compound 41 was stirred for 6 hours in 1M acetic acid (pH 2.37), mimicking the length of time oral drugs are present in the stomach. The NMR data obtained after 6 hours was identical to that of compound 41 before the assay (FIG. 18). In addition to the NMR, IR analysis further confirmed the presence of the isocyanide group post treatment with acid, as shown by the sharp signal at approximately 2100 cm^−1.

E. coli strain DH5a = experiment: MIC with and without outer membrane permeabilisation; format: cell-based; conditions: Escherichia coli
Method: Antibiotic MIC's were determined by a broth micro-dilution method according to Clinical Standard Laboratory Institute (CSLI) Guidelines (2017). Briefly, 96-well microplates, each containing 195 μL of the 1:2 dilution antibiotic in TSB, were inoculated with 5 μL of overnight cultured bacteria, diluted to give a starting bacterial concentration of 5×10^5 CFU/mL. The optical density of each well inoculated was recorded every 12 minutes over an 18 hour period at 37° C. The data from this was plotted in OriginPro8 (OriginLab) and sigmoidal curves fitted using the dose response function. Fitted values for each curve were used to calculate the MIC.

[6] = Candida tropicalis, ATCC750, read-out: MIC
[7] = Candida tropicalis, ATCC450, read-out: MIC
[8] = Nakaseomyces glabratus, ATCC90030, read-out: MIC
[9] = Candida albicans, ATCC90028, read-out: MIC
[10] = Cryptococcus neoformans, ATCC208821, read-out: MIC

Molecule | MIC (C. tropicalis ATCC 750; [6]) [µg/mL] | MIC (C. tropicalis ATCC 450; [7]) [µg/mL] | MIC (C. glabrata ATCC 90030; [8]) [µg/mL] | MIC (C. albicans ATCC 90028; [9]) [µg/mL] | MIC [1, 10] [µg/mL] | MIC ([2]; read-out: MIC) [µg/mL] | change of MIC after serial passage (in words) (MRSA 252) | antibiotic activity in disc diffusion assays (in words) [3] | reduction of the biofilm depth (S. aureus AS 68 biofilm; S. aureus AS 68, 2 μg/ml (the lowest concentration tested)) [%] | attenuation of biomass in 24 hour old biofilms (S. aureus AS 68 biofilm; S. aureus AS 68, 50 μg/mL, crystal violet) | zone of inhibition at 500 µg/mL [4] [mm] | NMR data after acid exposure [5] | MIC (E. coli strain DH5a; not permeabilised) [µg/mL] | MIC (E. coli strain DH5a; outer membrane permeabilised with polymixin B nanopeptides) [µg/mL] | MIC (C. tropicalis ATCC 750) [µg/mL] | MIC (C. tropicalis ATCC 450) [µg/mL] | MIC (C. glabrata ATCC 90030) [µg/mL] | MIC (C. albicans ATCC 90028) [µg/mL] | MIC [1] [µg/mL] | MIC [2] [µg/mL]
[C-]#[N+]C=Cc1cc(Br)ccc1O [Compound 13] | 16 | 4 | > 32 | 4 to 8 | 4 to 8 | 4 |  |  |  |  |  |  |  |  |  |  |  |  |  | 
[C-]#[N+]C=Cc1ccc(O)c(Br)c1 [Compound 14] | > 32 | > 32 | > 32 | 32 | > 32 | 32 |  |  |  |  |  |  |  |  |  |  |  |  |  | 
[C-]#[N+]/C=C/c1ccc(O)cc1/C=C/c1ccccc1 [Compound 36, 4-((E Z)-2-Isocyanovinyl)-3-((E)-styryl)phenol] | 32 | 2 | 32 | 16 | 4 to 8 | 2 | no increase in the MIC | retained antibiotic activity |  |  |  |  |  |  |  |  |  |  |  | 
[C-]#[N+]/C=C/c1ccc(NC(C)=O)cc1/C=C/c1ccccc1 [Compound 41, N-(4-((E)-2-Isocyanovinyl)-3-((E)-styryl)phenyl)acetamide] | 32 | 1 to 2 | 32 | 2 to 4 | 2 | 1 to 2 |  | excellent activity against all three S. aureus strains, as well as P. aeruginosa PAO1 | 86 | significant attenuation in biomass | 16 | identical | 280 (≈ 971 µM) | 16 (≈ 55.5 µM) |  |  |  |  |  | 
(2-Isocyanovinyl)-4-acetaamido benzene [Compound 22] |  |  |  |  |  |  |  |  |  |  |  |  |  |  | >32 | >32 | >32 | 16 | >32 | >32
